Where a name gives a salt, the structure may show the parent alone.
Assays:
[1] = biological target: T1, 5-lipoxygenase (Rattus norvegicus, UniProt P12527); experiment: Inhibition of 5-lipoxygenase, in vitro; assay type: biochemical; conditions: 100,000×g supernatant of RBL-1 homogenate, [1-14C]-arachidonic acid and Ca++; average; read-out: average IC50, inhibition of 5-lipoxygenase (5-HETE synthesis)
T1 construct: supernatant fraction of Rat Basophilic Leukemia Cell Homogenate (RBL-1) serves as a 5-lipoxygenase enzyme source; endogenous in cells; host or cells: RBL-1 (rat basophilic leukemia) cells, 100,000×g supernatant of homogenate
T1 sequence (P12527 1-673): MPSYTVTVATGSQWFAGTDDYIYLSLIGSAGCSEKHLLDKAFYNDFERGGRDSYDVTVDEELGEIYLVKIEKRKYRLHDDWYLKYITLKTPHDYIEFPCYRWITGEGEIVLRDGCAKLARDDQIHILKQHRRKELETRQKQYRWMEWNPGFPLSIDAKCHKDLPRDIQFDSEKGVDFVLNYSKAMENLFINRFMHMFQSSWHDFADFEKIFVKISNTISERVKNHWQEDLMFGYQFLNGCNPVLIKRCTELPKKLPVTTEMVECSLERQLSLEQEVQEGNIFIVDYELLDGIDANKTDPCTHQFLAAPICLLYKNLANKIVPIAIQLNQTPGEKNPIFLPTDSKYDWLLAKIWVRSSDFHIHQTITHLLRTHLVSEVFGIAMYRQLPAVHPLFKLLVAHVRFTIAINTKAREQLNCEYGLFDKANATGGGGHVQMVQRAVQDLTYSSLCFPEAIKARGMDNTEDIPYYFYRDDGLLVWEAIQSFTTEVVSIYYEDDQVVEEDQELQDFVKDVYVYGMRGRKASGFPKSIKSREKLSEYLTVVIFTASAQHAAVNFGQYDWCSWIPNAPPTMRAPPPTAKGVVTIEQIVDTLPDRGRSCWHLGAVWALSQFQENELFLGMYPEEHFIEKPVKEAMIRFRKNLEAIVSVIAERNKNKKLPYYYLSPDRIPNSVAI
Protocol: The compounds of the invention are evaluated with respect to 5-lipoxygenaseinhibition according to the following assay procedure.
The 100,000×g supernatant fraction of Rat Basophilic Leukemia Cell Homogenate (RBL-1) serves as a 5-lipoxygenase enzyme source. The enzyme is incubated with [1-^14 C)-arachidonic acid and Ca++ in the presence and absence of test compound. The product of 5-lipoxygenase, 5-hydroxyeicosa-tetraenoic acid (5-HETE), is separated by thin-layer chromatography and measured by radioactivity. A compound inhibiting 5-HETE synthesis by 30% or more is considered active at that concentration.

[2] = tested on: superoxide generation by FMLP-stimulated human neutrophils; experiment: Human neutrophil superoxide generation (FMLP-stimulated, cytochrome C reduction); assay type: cell-based; conditions: pH 7.2, 37° C., preincubated 3 minutes, average, read-out: average IC50, inhibition of superoxide generation
Protocol: The compounds of the invention are evaluated with respect to superoxide modulating activity according to the following assay procedure:
Superoxide generation by formyl-methionyl-leucyl-phenylalanine (FMLP)-stimulated neutrophils was quantitated by the reduction of cytochrome C (Badwey, J. A., Curnutte, J. T. and Karnovsky, M. L., cis-Polyunsaturated fatty acids induce high levels of superoxide production by human neutrophils. J. Biol. Chem. 256:12640-12643, 1981.) To 5 million neutrophils in 2.85 ml of Krebs-Ringer phosphate buffer, pH 7.2, 50 ul of inhibitor (in 10% DMSO/buffer), and 50 ul ferricytochrome C (5 mM, stock) were added and preincubated for 3 minutes at 37° C. Absorption measurements at 550 nm were recorded at start of preincubation. Fifty ul FMLP (6 uM, stock) was added to initiate reaction. A plateau was reached within 3 minutes and this reading minus the initial reading (before addition of FMLP) was used to calculate nanomoles of superoxide generated based on a molar extinction coefficient of 2.1×10^4 cm^-1 mole^-1.
Human neutrophils were isolated from freshly drawn blood of healthy donors. Two ml of 5% dextran (MW 200,000-300,000) in saline was added to 10 ml aliquots of blood, mixed and placed upright for 45 min. at 37° C. Approx. […] The red cell lysing procedure was repeated, the cells suspended in appropriate buffer (depending on assay) and counted.

[3] = compared with histamine; background information; cited from earlier work

Structure (SMILES)	IC50 [1]	IC50 [2]	potency in causing long lasting bronchoconstricting effects relative to histamine [3]
C[C@H](Sc1cc(C(C)(C)C)c(O)c(C(C)(C)C)c1)[C@@H](C)OCC(=O)NCCS(=O)(=O)O (relative stereo) [Example 5, 2-[[[2S*-[[3,5-bis(1,1-dimethylethyl)-4-hydroxyphenyl]thio]-1R*-methylpropoxy]acetyl]amino]ethanesulfonic acid, potassium salt]	3.25 µM	87.5 µM	–
CCCCC/C=C\C\C=C/C=C/C=C/[C@@H](SC[C@H](NC(=O)CC[C@H](N)C(=O)O)C(=O)NCC(=O)O)[C@@H](O)CCCC(=O)O [LTC4]	–	–	at least 100 times
